How the values were obtained:
Type in all cases: in vivo
Chilo suppressalis = assay: Insecticidal activity assay, water bamboo leaf dip, 4th instar larvae; settings: liquid concentration 0.4 ppm, 48 h
Experimental: (§1) The compound of the present invention was dissolved in acetone, and then diluted with water into liquids with gradients of different concentrations (ppm). Corn leaves were soaked in liquids of different concentrations for about 20 seconds, air-dried and then placed in petri dishes where 3rd instar Spodoptera frugiperda were placed, respectively; kale leaves were soaked in liquids of different concentrations for about 20 seconds, air-dried and then placed in petri dishes where 3rd instar Spodoptera frugiperda were placed, respectively; peanut leaves were soaked in liquids of different concentrations for about 20 seconds, air-dried and then placed in petri dishes where Tetranychus urticae (adult mite) and Aphis craccivora (adult aphid) were placed, respectively; water bamboo leaves were soaked in liquids of different concentrations for about 20 seconds, air-dried and then placed in petri dishes where 4th instar Chilo suppressalis were placed, respectively. Each petri dish was placed with 10 insects, covered and then stored at 25° C. in a constant temperature room. The number of dead insects were checked after 48 h. The dead insect rate was calculated by the formula: Death rate (%)=(Number of dead insects/Number of test insects)×100. Furthermore, the experiment was conducted in two replications.

Spodoptera frugiperda [1] = assay: Insecticidal activity assay, corn leaf dip, 3rd instar larvae; settings: liquid concentration 0.3 ppm, 48 h
Experimental: as §1

Aphis craccivora = assay: Insecticidal activity assay, peanut leaf dip, adult aphid; settings: liquid concentration 8.1 ppm, 48 h
Experimental: as §1

Tetranychus urticae = assay: Insecticidal activity assay, peanut leaf dip, adult mite; settings: 48 h
Experimental: as §1

Spodoptera exigua = assay: Insecticidal activity assay, kale leaf dip, 3rd instar larvae; settings: liquid concentration 0.3 ppm, 48 h
Spodoptera frugiperda [2] = assay: Assay of insecticidal activity of compositions (synergism), 3rd instar; settings: A 0.1 ppm
Experimental: as §1
• Test targets: Spodoptera frugiperda (3rd instar) and Aphis gossypii (adult aphid) […]
(§2) Different ratios within the selected ratio range were set for toxicity determination, and the optimal ratio was selected according to synergistic effects. When the synergistic effect >0, it indicated a synergistic effect; when the synergistic effect is close to 0, it indicated an addition effect; when the synergistic effect <0, it indicated an antagonistic effect.
(§3) [formula] • wherein, P1, P2—Death rate by each individual agent in a mixed formulation.

Aphis gossypii = assay: Assay of insecticidal activity of compositions (synergism), zucchini leaves, adult aphid
Experimental: as §1
• Test targets: Spodoptera frugiperda (3rd instar) and Aphis gossypii (adult aphid)
Referring to the above-mentioned Insecticidal activity assay, when the test target was Aphis gossypii, the zucchini leaves were selected.
as §2, §3

Compound	Death rate (Chilo suppressalis)	Death rate (Spodoptera frugiperda [1])	Death rate (Aphis craccivora)	Death rate (Tetranychus urticae; liquid concentration 8.1 ppm)	Death rate (Spodoptera exigua)	Death rate (Tetranychus urticae; liquid concentration 0.9 ppm)	Death rate by individual A (Spodoptera frugiperda [2])	Death rate by individual A (Aphis gossypii; A 0.1 ppm)	Death rate by individual B (Aphis gossypii; B 2 ppm)
COC(=O)C(C)NC(=O)c1ccc(C2=NOC(c3cc(Cl)cc(C(F)(F)F)c3)(C(F)(F)F)C2)cc1C (mixture of isomers) [1 (2R)]	100%	100%	83%	83%	90%				
COC(=O)C(C)NC(=O)c1ccc(C2=NOC(c3cc(Cl)c(F)c(C(F)(F)F)c3)(C(F)(F)F)C2)cc1C (mixture of isomers) [2 (2R)]	100%	100%	90%		90%	100%			
CCc1cc(C2=NOC(c3cc(Cl)c(Cl)c(C(F)(F)F)c3)(C(F)(F)F)C2)ccc1C(=O)NC(C)C(=O)OC (mixture of isomers) [140 (2R)]	100%	100%	100%	100%	100%				
COC(=O)C(C)NC(=O)c1ccc(C2=NOC(c3cc(Cl)c(Cl)c(C(F)(F)F)c3)(C(F)(F)F)C2)cc1C(F)(F)F (mixture of isomers) [147 (2R)]	100%	100%	100%	100%	100%				
COC(=O)CNC(=O)c1ccc(C2=NO[C@@](c3cc(Cl)c(Cl)c(C(F)(F)F)c3)(C(F)(F)F)C2)cc1C [188 (5S)]	100%	100%	100%	100%	100%				
COC(=O)C(C)NC(=O)c1ccc(C2=NOC(c3cc(Cl)c(F)c(C(F)(F)F)c3)(C(F)(F)F)C2)cc1C [Compound 2 (5S, 2R)]	100%	100%	100%		100%	100%			
COC(=O)[C@@H](C)NC(=O)c1ccc(C2=NOC(c3cc(Cl)c(Cl)c(C(F)(F)F)c3)(C(F)(F)F)C2)cc1C (stereo partly drawn) [Compound 3 (2R)]	100%	100%	93%		77%	100%	72%	38%	
CC(C)=NOC(=O)[C@@H](C)NC(=O)c1ccc(C2=NOC(c3cc(Cl)c(Cl)c(C(F)(F)F)c3)(C(F)(F)F)C2)cc1C (stereo partly drawn) [Compound 80 (2R)]	100%	100%	100%	100%	100%				
COC(=O)[C@@H](C)NC(=O)c1ccc(C2=NOC(c3cc(Cl)c(Cl)c(C(F)(F)F)c3)(C(F)(F)F)C2)cc1Cl (stereo partly drawn) [Compound 144 (2R)]	100%	100%	100%	100%	100%				
COC(=O)[C@@H](C)NC(=O)c1ncc(C2=NOC(c3cc(Cl)c(Cl)c(C(F)(F)F)c3)(C(F)(F)F)C2)cc1C (stereo partly drawn) [Compound 154 (2R)]	100%	100%	93%		77%	100%			
COC(=O)[C@@H](C)NC(=O)c1ccc(C2=NOC(c3cc(Cl)cc(Cl)c3)(C(F)(F)F)C2)cc1C (stereo partly shown) [Control compound A, reference compound]	40%	70%	20%	25%	30%				
CCN(C(=O)c1cnn(C(C)C(C)C)c1C)c1ccnnc1 (stereo not shown) [dimpropyridaz, Dimpropyridaz, reference compound]									48%

— patent publication US20260209189A1, “ISOXAZOLINE-SUBSTITUTED BENZAMIDE COMPOUND AND APPLICATION THEREOF” (priority 2022, published 2026)
